This passage reports IC50 results from patent publication US6417190B1, “Tricyclic nitrogen heterocycles as PDE IV inhibitors” (Boehringer Ingelheim Pharma KG, priority 1998, dated 2002).

The structures appear in SMILES notation.

The assay has as its system human PDE IV. Briefly: PDE IV inhibition, method of Torphy et al. (1992), [3H]cAMP, enzyme purified from human monocytes (U937-cells). It is filed as biochemical. The conditions noted are these: 1 μCi/ml [3H] cAMP, 40 mM Tris-HCl (pH 7.8), 3 mM MgCl2, incubation 30 min at 30° C. An excerpt: Table 1 contains the pharmacological data obtained for the compounds of general formula (I). The data was obtained by the method of Torphy et al. (1992), J. Pharmacol. Exp. Ther. 263:1195.
The IC50 is the concentration that gives 50% inhibition. A high value points to weaker potency. As to `CCn1c(=O)c2[nH]c(C3CCCC3)nc2n2nc(Cn3cccc3)nc12` [No. 11], the IC50 was 0.069 µM. This lies in the double-digit nanomolar range.

In turn, `CCn1c(=O)c2[nH]c(C3CCCC3)nc2n2nc(Cc3ccccc3)nc12` [No. 9] gave an IC50 of 0.057 µM.

Consider `CCCc1nc2n(CCC)c(=O)c3[nH]c(-c4ccccc4)nc3n2n1` [No. 8], for which the IC50 came to 0.055 µM. The IC50 values of the last two molecules are within 1.5-fold of each other.

In turn, `CCCn1c(=O)c2[nH]c(C3CCCC3)nc2n2nc(Cc3ccccc3)nc12` [No. 12] had an IC50 of 0.074 µM.

The molecule `CCn1c(=O)c2[nH]c(C(C)(C)C)nc2n2nc(Cc3ccc(OC)cc3)nc12` [No. 3] showed an IC50 of 0.042 µM.

In turn, `CCCn1c(=O)c2[nH]c(C3CCCC3)nc2n2nc(CC)nc12` [No. 2] returned an IC50 of 0.039 µM. This IC50 and that of the molecule before are within 1.5-fold of each other.

As to `CCCn1c(=O)c2[nH]c(C3CCCC3)nc2n2nc(C(C)C)nc12` [No. 1], the midpoint of inhibition, the IC50, lay at 0.018 µM.

In turn, `CCCc1nc2c([nH]1)c(=O)n(CCC)c1nc(Cc3ccccc3)nn21` [No. 10] registered an IC50 of 0.069 µM. Compared with the last molecule, the IC50 is about 3.8-fold higher.

In the case of `CCn1c(=O)c2[nH]c(C(C)(C)C)nc2n2nc(Cc3ccccc3)nc12` [No. 7], the IC50 amounted to 0.053 µM. The IC50 values of the last two molecules are within 1.5-fold of each other.

`CCCc1nc2c([nH]1)c(=O)n(CCC)c1nc(C3CCCC3)nn21` [No. 19] returned an IC50 of 0.12 µM.

As to `CCCCc1nc2n(CCC)c(=O)c3[nH]c(C4CCCC4)nc3n2n1` [No. 14], the IC50 amounted to 0.081 µM.

For the molecule `CCCn1c(=O)c2[nH]c(N3CCOCC3)nc2n2nc(Cc3ccccc3)nc12` [No. 16], the IC50 turned out to be 0.11 µM.

As for `CCCn1c(=O)c2[nH]c(C3CCCC3)nc2n2nc(C(C)(C)C)nc12` [No. 13], the IC50 turned out to be 0.079 µM.

The molecule `CCCc1nc2n(CCC)c(=O)c3[nH]c(C4CCCC4)nc3n2n1` [No. 6] returned an IC50 of 0.049 µM.

`CCn1c(=O)c2[nH]c(C3CCCC3)nc2n2nc(CCc3ccccc3)nc12` [No. 4] yielded a concentration for half-maximal inhibition (IC50) of 0.046 µM.

Molecule `CCn1c(=O)c2[nH]c(C3CCCC3)nc2n2nc(COc3ccccc3)nc12` [No. 15] returned an IC50 of 0.11 µM.

`CCc1nc2c([nH]1)c(=O)n(CC)c1nc(CC3CCCCC3)nn21` [No. 18] registered a half-maximal inhibitory concentration (IC50) of 0.12 µM.

In turn, `CCn1c(=O)c2[nH]c(C3CCCC3)nc2n2nc(CC3CCCCC3)nc12` [No. 17] gave an IC50 of 0.11 µM. This IC50 and that of the molecule before are within 1.5-fold of each other.
